Reference: the pKa sets of Baltruschat and Czodrowski (2020)

Conditions: acidic group

Q: With `Cc1ccc(C(C)C)cc1O` as the compound, how does the pKa read?
A: 10.3

Q: With `C/C(O)=C/C(=O)[O-]` as the compound, how does the pKa read?
A: 13.2

Q: With `CC(CC(=O)O)C(N)=O` (configuration not stated) as the compound, how does the pKa read?
A: 4.59

Q: For `CCCCC1(CC)C(=O)[N-]C(=S)NC1=O`, which pKa is on record?
A: 12.1

Q: With `Cc1cc(C)c(C(C(=O)O)c2ccccc2)c(C)c1` (configuration not stated) as the compound, how does the pKa read?
A: 4

Q: With `CN(C)c1nc2ncncc2[nH]1` as the compound, how does the pKa read?
A: 9.73

Q: For `COc1c(O)cccc1CN`, which pKa is on record?
A: 10.5

Q: Which pKa does the source give for `COc1cc(C(N)=O)ccc1-c1nc2c(ncn2C)[nH]1` here?
A: 11.7

Q: Which pKa does the source give for `CO[n+]1ccccc1O` here?
A: -1.3

Q: For `O=[N+]([O-])c1ccc(S(=O)(=O)Nc2ccccc2)cc1`, which pKa is on record?
A: 7.41

Q: For `O=C(O)[C@@H]1CCC[C@H](O)C1`, which pKa is on record?
A: 4.6

Q: Which pKa does the source give for `CC(=O)c1ccc(Cl)cc1` here?
A: 18.1

Q: Which pKa does the source give for `C=CCC1(C2=CCCCC2)C(=O)NC(=S)NC1=O` here?
A: 7.09

Q: Which pKa does the source give for `Oc1cc(-c2ccccc2)nn1-c1ccccc1` here?
A: 12.2

Q: Which pKa does the source give for `O=C(O)Cn1ncnn1` here?
A: 2.12

Q: For `Cc1cc(O)n(-c2nc(O)c(C)c(C)[nH+]2)n1`, which pKa is on record?
A: 5.5

Q: Which pKa does the source give for `Cc1ccc(C(=S)Nc2ccc(F)cc2)cc1` here?
A: 11

Q: Which pKa does the source give for `O=[Se](O)c1ccc2ccccc2c1` here?
A: 4.67

Q: With `CC(C(=O)c1ccccc1)[n+]1ccccc1` (configuration not stated) as the compound, how does the pKa read?
A: 11.5

Q: Which pKa does the source give for `O=C(NO)c1ccccc1O` here?
A: 7.39

Q: Which pKa does the source give for `O=C(C1=C(O)C(=O)c2ccccc2C1=O)c1ccccc1` here?
A: 2.17

Q: With `Nc1ccc(O)cc1` as the compound, how does the pKa read?
A: 10.1

Q: With `N/C(=N\O)c1ncnc2nc[nH]c12` as the compound, how does the pKa read?
A: 9.4

Q: Which pKa does the source give for `CCOc1ccccc1/C=C\C(=O)O` here?
A: 4.35

Q: For `O=S(Cc1ccccc1)c1ncn[nH]1` (configuration not stated), which pKa is on record?
A: 7.38

Q: With `[O-]c1cc[nH+]cc1O` as the compound, how does the pKa read?
A: 9.6

Q: For `O/N=C(/Cc1ccccc1)NO`, which pKa is on record?
A: 10.7

Q: For `Oc1cccc2c1-c1c(O)cccc1-2`, which pKa is on record?
A: 8.16

Q: For `Oc1cccc(I)c1`, which pKa is on record?
A: 9.02

Q: With `CSC(=S)NCC(=O)O` as the compound, how does the pKa read?
A: 3.19

Q: For `CC(=O)/C(=N/O)c1ccccc1`, which pKa is on record?
A: 8.85

Q: Which pKa does the source give for `COc1ccc2c(c1)nnn2O` here?
A: 5.07

Q: For `C[NH+](C)Cc1ccc(NC(=O)/C=N/O)cc1`, which pKa is on record?
A: 8.43

Q: Which pKa does the source give for `COc1ncc2[nH]cnc2n1` here?
A: 9.2

Q: With `Cc1ccccc1C(=S)Nc1ccccc1` as the compound, how does the pKa read?
A: 10.9

Q: With `[NH3+]c1ccc(O[C@H]2O[C@@H](C(=O)O)[C@H](O)[C@@H](O)[C@@H]2O)cc1` as the compound, how does the pKa read?
A: 3.1

Q: For `COC(=O)CC(=N/O)/C(C)=N/O`, which pKa is on record?
A: 9.77

Q: Which pKa does the source give for `Nc1cccc(O)c1` here?
A: 9.85

Q: Which pKa does the source give for `O=C([O-])[C@@H]1O[C@H](Oc2ccc3[nH+]ccc(O)c3c2)[C@@H](O)[C@H](O)[C@H]1O` here?
A: 3.7

Q: With `Oc1ccc(F)cc1C[NH+]1CCCCC1` as the compound, how does the pKa read?
A: 8.81

Q: Which pKa does the source give for `CCO/C(C)=N/O` here?
A: 11.4

Q: With `CC(=O)CC(C)=O` as the compound, how does the pKa read?
A: 8.85

Q: With `Cn1c(-c2ccccc2O)[nH+]c2ccccc21` as the compound, how does the pKa read?
A: 5.76

Q: Which pKa does the source give for `c1cncc(-c2nc3ccccc3[nH]2)c1` here?
A: 11.2

Q: For `O=Cc1ccccc1B(O)O`, which pKa is on record?
A: 7.31

Q: With `N#Cc1ccc(O)cc1` as the compound, how does the pKa read?
A: 7.89

Q: With `O=[Se](O)c1ccccc1-c1ccccc1` as the compound, how does the pKa read?
A: 4.67

Q: With `CC(C)(C)OC(=O)NC(CCC(N)=O)C(=O)O` (configuration not stated) as the compound, how does the pKa read?
A: 3.66

Q: Which pKa does the source give for `COc1cc(C=O)ccc1O` here?
A: 7.38

Q: For `Cc1cc(=O)oc2cc(O)c(Cl)cc12`, which pKa is on record?
A: 6.1

Q: With `O=C1CCc2cc(Cl)c([N+](=O)[O-])cc2C1` as the compound, how does the pKa read?
A: 11.3

Q: Which pKa does the source give for `Cc1ccc(C(=O)O)c(O)c1` here?
A: 3.11

Q: Which pKa does the source give for `O=C(O)[C@H]1C[C@@H]2CC[C@H]1C2` here?
A: 5.02

Q: For `NS(=O)(=O)c1nccs1`, which pKa is on record?
A: 8.25

Same assay, conditions: basic group

Q: With `Cc1ccccc1/C(=N\CCCN(C)C)c1ccccc1Cl` as the compound, how does the pKa read?
A: 8.95

Q: Which pKa does the source give for `Nc1cccc2cncnc12` here?
A: 2.81

Q: With `O=[N+]([O-])c1cccc2nc3ccccc3c(NCCCO)c12` as the compound, how does the pKa read?
A: 7.55

Q: Which pKa does the source give for `CN(C)c1ccc(C2CN3CCC2CC3)cc1` (configuration not stated) here?
A: 10.3

Q: Which pKa does the source give for `COC(=O)c1ccccc1N(C)C` here?
A: 5.55

Q: For `Cc1cnc2c(cc(C)c3cccnc32)c1C`, which pKa is on record?
A: 5.93

Q: With `CN(C)c1nc2ncncc2[nH]1` as the compound, how does the pKa read?
A: 4.8

Q: For `CC1=CC(=C2C=CC=CC=C2)C=C(C)C1=O`, which pKa is on record?
A: 6.26

Q: For `C[C@H]1C[NH2+][C@@H](C)CN1`, which pKa is on record?
A: 5.23

Q: For `[O-]c1ncnc2ccccc12`, which pKa is on record?
A: 9.81

Q: For `c1cc(-c2ccncc2)ccn1`, which pKa is on record?
A: 4.82

Q: With `COc1c(O)cccc1CN` as the compound, how does the pKa read?
A: 8.89

Q: For `C1CCN(CCC[NH+]2CCCC2)C1`, which pKa is on record?
A: 8.03

Q: Which pKa does the source give for `COc1cc(C(N)=O)ccc1-c1nc2c(ncn2C)[nH]1` here?
A: 3.8

Q: For `NC(=S)C([NH3+])Cc1ccccc1` (configuration not stated), which pKa is on record?
A: -8.63

Q: Which pKa does the source give for `O=C([O-])c1nc2cc(Cl)ccc2[nH]1` here?
A: 4.3

Q: Which pKa does the source give for `CCC(C)(C)Nc1ccccc1` here?
A: 6.55

Q: With `CCC(=O)SCCN(C)C` as the compound, how does the pKa read?
A: 8.28

Q: With `C(CN1CCOCC1)C[NH+]1CCOCC1` as the compound, how does the pKa read?
A: 6.25

Q: For `CCc1cnc(C(=O)[O-])cc1CC`, which pKa is on record?
A: 6.58

Q: With `c1ccc(-c2cc(-c3ccccc3)c(NCC[NH+]3CCOCC3)nn2)cc1` as the compound, how does the pKa read?
A: 3.36

Q: For `COc1cnccc1N`, which pKa is on record?
A: 9.03

Q: With `Nc1ccc(O)cc1` as the compound, how does the pKa read?
A: 5.54

Q: Which pKa does the source give for `CCCNCc1ccccc1` here?
A: 9.62

Q: With `O=[N+]([O-])c1ccc(-c2cnc(-c3ccccc3)o2)cc1` as the compound, how does the pKa read?
A: 0.35

Q: Which pKa does the source give for `CC(C)CCN` here?
A: 10.9

Q: For `CN(C)CC(P(=O)([O-])[O-])P(=O)([O-])[O-]`, which pKa is on record?
A: 8.98

Q: With `O/N=C(/Cc1ccccc1)NO` as the compound, how does the pKa read?
A: 4.25

Q: With `Nc1cccc(S(N)(=O)=O)c1` as the compound, how does the pKa read?
A: 2.87

Q: For `[O-]c1[nH+]ccc2c1cnc1ccccc12`, which pKa is on record?
A: 4.1

Q: For `Cn1ccc(=N)cc1`, which pKa is on record?
A: 12.5

Q: For `Nc1ccc2[nH]c(Cc3ccccc3)[nH+]c2c1`, which pKa is on record?
A: 3.3

Q: Which pKa does the source give for `C1CCN(CCCN2CCCC2)C1` here?
A: 10

Q: With `CN=C1CCCCC1` as the compound, how does the pKa read?
A: 9.43

Q: With `Nc1ccc2nccnc2c1` as the compound, how does the pKa read?
A: 2.95

Q: For `Nc1ccc2[nH]ncc2c1`, which pKa is on record?
A: 5.15

Q: With `CC(C)NCCNC(C)C` as the compound, how does the pKa read?
A: 10.4

Q: For `CC[NH+](CC)CCCC(C)Nc1cc(OC)cc2cccnc12` (configuration not stated), which pKa is on record?
A: 3.63

Q: For `COc1ncc2[nH]cnc2n1`, which pKa is on record?
A: 2.44

Q: Which pKa does the source give for `[NH3+]Cc1cccnc1` here?
A: 3.71

Q: With `O=[N+]([O-])c1ccc2cn[nH]c2c1` as the compound, how does the pKa read?
A: 0.66

Q: With `Cc1ccccc1NC(=N)Nc1ccccc1C` as the compound, how does the pKa read?
A: 9.67

Q: Which pKa does the source give for `Cc1ccccc1/C(=N/CCCN(C)C)c1ccc2ccccc2c1` here?
A: 8.9

Q: Which pKa does the source give for `NC(Cc1ccccc1)C(=O)[O-]` (configuration not stated) here?
A: 9.17

Q: For `CC(CN)C(=O)[O-]` (configuration not stated), which pKa is on record?
A: 9.91

Q: With `CC1CC(/C=C2\CC(C)(C)CN2)=NC1(C)C` (configuration not stated) as the compound, how does the pKa read?
A: 12.1

Q: With `NC(Cc1n[nH]c2ccccc12)C(=O)[O-]` (configuration not stated) as the compound, how does the pKa read?
A: 8.95

Q: Which pKa does the source give for `CCCSCCN(CC)CC` here?
A: 8.83

Q: Which pKa does the source give for `CN(C(=O)c1ccccc1)c1ccncc1` here?
A: 4.68

Q: Which pKa does the source give for `CC(=O)Oc1ccccc1C(=O)NCC(=O)O` here?
A: 3.77

Q: For `COc1ccc(-c2cc3ccncc3[nH]2)c(OC)c1`, which pKa is on record?
A: 8.29

Q: For `c1ccc([C@@H]2CN3CCC[C@@H]3c3ccccc32)cc1`, which pKa is on record?
A: 9.12

Q: Which pKa does the source give for `Nc1cccc(O)c1` here?
A: 4.29

Q: With `[O-]c1ccnnc1` as the compound, how does the pKa read?
A: 8.68

Q: For `CC(CN1c2ccccc2Sc2ccccc21)N(C)C` (configuration not stated), which pKa is on record?
A: 8.65

Q: Which pKa does the source give for `Nc1ccc(-c2ncc(-c3ccc(Cl)cc3)o2)cc1` here?
A: 2.87

Q: Which pKa does the source give for `CNNC1CC[NH+](C)CC1` here?
A: 5.95

Q: With `CN(C)c1ccc(Cl)cc1` as the compound, how does the pKa read?
A: 4.39

Q: With `N/C(=N\O)c1ccccc1` as the compound, how does the pKa read?
A: 4.97

Q: With `CCOC(=O)CCCc1ccccn1` as the compound, how does the pKa read?
A: 5.32

Q: With `NC/C=C\C(=O)[O-]` as the compound, how does the pKa read?
A: 9.84

Q: With `Cc1n[nH]c2ccc(N)cc12` as the compound, how does the pKa read?
A: 5.25

Q: With `Nc1ccncc1C(=O)[O-]` as the compound, how does the pKa read?
A: 9.1

Q: With `c1cncc(-c2nc3ccccc3[nH]2)c1` as the compound, how does the pKa read?
A: 4.53

Q: Which pKa does the source give for `CCCNC1c2ccccc2C=Cc2ccccc21` here?
A: 8.9

Q: For `[S-]c1ccnc([S-])[nH+]1`, which pKa is on record?
A: 6.46

Q: Which pKa does the source give for `c1cc(N2CCOCC2)ccn1` here?
A: 8.79

Q: For `CCCCNCc1ccc(C)cc1`, which pKa is on record?
A: 9.98

Q: With `CC(C)C(N)C(=O)O` (configuration not stated) as the compound, how does the pKa read?
A: 9.58

Q: Which pKa does the source give for `Cc1c2ccncc2cc2c1[nH]c1cc[nH+]cc12` here?
A: 5.3

Q: With `c1cnc2ncncc2n1` as the compound, how does the pKa read?
A: 4.13

Q: With `Cn1c(=O)c2c([O-])cnnc2n(C)c1=O` as the compound, how does the pKa read?
A: 8.51

Q: Which pKa does the source give for `C=C(C)C(=O)NCCN(C)C` here?
A: 8.54
